Laboratory results reported in US11072627B2, “Uridine diphosphate derivatives, compositions and methods for treating neurodegenerative disorders” (Tufts University, priority 2011, dated 2021).
“Also recorded” adds a separate entry of the source. Like-named read-outs stand apart in the source and are kept apart here.

Columns and labels:
[1] = biological target: T1, P2Y2 receptor (Homo sapiens, UniProt P41231); experiment: Ca2+ mobilizing effect in 1321N1 cells expressing P2Y2 (fluo-4); type: cell-based; details: sodium salt; 1321N1 human astrocytoma cells expressing P2Y2
T1 construct: expressed in transfected cells; host or cells: 1321N1 human astrocytoma cells
Protocol: (§1) Synthetic ligands were tested for activation of P2Y6 receptor by measuring receptor induced Ca^2+ changes with the fluorescent Ca^2+ indicator fluo-4. 1321N1 human astrocytoma cell lines either expressing P2Y2, P2Y4 or P2Y6 receptors were plated into 24-well plates. Two days after plating, fluorometric measurements were made and responses of cells to a serial dilution of ligands were determined. P2Y6 mediated Ca^2+ fluorescent change was determined by normalized accumulation of fluorescent change of 3 timepoints after ligand administration subtracted by value from ACSF control. Changes in fluorescent intensity were plotted corresponding to ligand concention in GraphPad. Dose-response curve and EC50 for each ligand was estimated using nonlinear curve fit and Sigmoidal dose-response analysis. […]
(§2) Synthetic ligands were tested for activation of P2Y6 receptor by measuring receptor induced Ca^2+ changes with the fluorescent Ca^2+ indicator fluo-4, and results are shown in FIG. 10(A)-(K). […] Two days after plating, fluorometric measurements were made and responses of cells to a serial dilution of ligands were determined. P2Y6 mediated Ca^2+ fluorescent change was determined by normalized accumulation of fluorescent change of 3 timepoints after ligand administration subtracted by value from ACSF control. […]

[2] = biological target: T2, P2Y4 receptor (Homo sapiens, UniProt P51582); experiment: Ca2+ mobilizing effect in 1321N1 cells expressing P2Y4 (fluo-4); type: cell-based; details: sodium salt; 1321N1 human astrocytoma cells expressing P2Y4
T2 construct: expressed in transfected cells; host or cells: 1321N1 human astrocytoma cells
Protocol: as §1, §2

[3] = system: PSAPP mice; experiment: Contextual fear conditioning test; type: in vivo, mouse
From the text: (§3) Heterozygous mutant (K670N/M671L) APP (50% C57B6, 50% SJL) transgenic mice were crossed with heterozygous mutant (A246E) PS-1 (50% C57B6, 50% SJL) transgenic mice to generate heterozygous PSAPP transgenic mice (also referred to as PS-1/APP or PSAPP+/+ mice), which refers to animals heterozygous for the PS-1 A246E transgene and the APP K670N/M671L transgene. Non-transgenic control animals were littermates (also referred to as PSAPP_−/− mice) generated in the breeding for PSAPP transgenic animals. Mouse genotype was determined by Polymerase Chain Reaction (PCR). Both male and female mice of 6-7 months old were used for the experiments below. All animal experiments were performed in accordance with the Tufts Animal Care and Use Committee and with national regulations and policies.
On day one, animals were trained in a fear conditioning apparatus for a total of 7 minutes with a two-pairing paradigm of cue and mild foot shock (a 30-s acoustic-conditioned stimulus, 80 dB; a 2-s shock stimulus, 0.5 mA). To evaluate contextual fear learning, the animals were returned to the training context 24 hours post-training, and freezing behavior was scored for 5 minutes. Freezing behavior was monitored by MotorMonitor (Hamilton Kinder) and scored every 5 seconds.
In this study, the fear conditioning associative learning paradigm was used as a rapid cognition assay for PSAPP mice. This study allowed us to probe cognitive function with a single training day followed in 24 hours by tests for contextual and cued fear learning. Contextual fear learning is dependent upon a brain area that has been implicated as a locus for cognitive decline in AD: the hippocampus. Two pairings of CS-US for fear conditioning were followed 24 hours later by testing for contextual and cued fear learning. Previous studies have reported that PSAPP animals appear to have a selective hippocampus-dependent impairment in associative learning following two pairings of conditioned stimuli for fear conditioning.
This represents a decrease in the cognitive impairment observed in the untreated mice.

[4] = system: PSAPP mice; experiment: Postmortem immunohistochemistry of plaque load in cortex and hippocampus; type: in vivo, mouse; details: for decrease in plaque load: acute i.c.v. UDP
[5] = biological target: T3, P2Y6 receptor (Homo sapiens, UniProt Q15077); experiment: Activation of P2Y6 receptor, receptor induced Ca2+ changes with fluo-4; type: cell-based; design: expressed in transfected cells; host or cells: 1321N1 human astrocytoma cells
Protocol: (§4) Synthetic ligands were tested for activation of P2Y6 receptor by measuring receptor induced Ca^2+ changes with the fluorescent Ca^2+ indicator fluo-4. 1321N1 human astrocytoma cell lines either expressing P2Y2, P2Y4 or P2Y6 receptors were plated into 24-well plates. Two days after plating, fluorometric measurements were made and responses of cells to a serial dilution of ligands were determined. P2Y6 mediated Ca^2+ fluorescent change was determined by normalized accumulation of fluorescent change of 3 timepoints after ligand administration subtracted by value from ACSF control. Changes in fluorescent intensity were plotted corresponding to ligand concention in GraphPad. Dose-response curve and EC50 for each ligand was estimated using nonlinear curve fit and Sigmoidal dose-response analysis. […] The ability of the sodium salt of compound 5 to elevate Ca^2+ signals in P2Y6 expressing cells was attenuated by addition of the P2Y6 antagonist MRS2578.
as §4, with “fluo-4, and results are shown in FIG. 10(A)-(K).” for “fluo-4.”

[6] = system: PSAPP mice; experiment: Postmortem immunohistochemistry of plaque load in cortex and hippocampus; type: in vivo, mouse; details: for immunoreactivity of β1-40 (plaque load): i.p. for 4 and 6 consecutive days
From the text: as §3
Mice were perfused transcardially with 4% paraformaldehyde and 40 μm Coronal sections were collected. Sections were sequentially incubated in 0.3% H2O2 for 10 minutes, blocking solution for 2 hrs, blocking solution containing the primary antibody (rabbit anti-beta1-42; rabbit anti-beta1-40, from Chemicon International and rat anti-CD45) for 48 hours at 4° C., and blocking solution containing biotinylated antibody or fluorescently-labeled antibody for 2 hours at room temperature. Sections were visualized in a bright field microscope or a confocal microscope, and the optical density was obtained using MetaMorph software.
After repeated imaging, brains were fixed and subjected to postmortem immunohistochemistry with amyloid beta specific antibodies β1-40 and β1-42 to evaluate the plaque load (area occupied by immunostaining of plaque) in cortex and hippocampus.
PSB0474 was systemically administered to PSAPP mice via intraperitoneal injection for 2, 4 and 6 consecutive days. In one group, prior to evaluation and following to administration for 6 consecutive days, treatment was suspended for two weeks (6+2 weeks group). Brains were then fixed and plaque load was evaluated by immunostaining with the amyloid beta specific antibodies: β1-40 and β1-42. Representative images of plaque load in cortex and hippocampus from animals that received injections of PSB0474 according to the foregoing injection schedules are shown in FIG. 5(A)-(D). […] Whereas, when administration of PSB0474 was stopped for 2 weeks following six consecutive days of treatment (denoted as the 6+2 weeks group), β1-40 staining rebounded; although to a level lower than observed in mice treated with saline as a vehicle control. […]
To generate these graphs showing plaque load, mice were euthanized, brain sections cut and antibodies directed against Aβ 42 were used to disclose Aβ plaques. […] The algorithm then calculated the percent area of the field of view occupied by the plaques.

[7] = system: PSAPP mice; experiment: Tolerability of increased dose of PSB0474; type: in vivo, mouse; details: 1000× increase in dose
[8] = biological target: T3, P2Y6 receptor; details: cited from earlier work
[9] = system: PSAPP mice; experiment: Two-photon in vivo imaging of amyloid plaques in barrel cortex; design: species or system mouse
From the text: as §3
In this study, PSAPP mice were anesthetized using isoflurane and a thin-skull preparation was used to minimize the surface damage. Amyloid plaques were visualized with methoxyX04 labeling and blood plasma was labeled with Rhodamine dextran to facilitate re-localization of the same imaging area. Stack images were obtained using a two-photon system (Prairie Technologies) with excitation at 850 nm. The emission was detected by external photomultiplier tubes (525/70; DLCP 575; 607/45 nm).
Animals were anesthetized and immobilized in a stereotaxic frame. For each injection, 1 μl of 10 mM UDP or other suitable compounds in artificial cerebrospinal fluid (ACSF) as the vehicle were injected intraventricularly using the following coordinates: AP 0.2 mm, ML 1 mm, and DV 2.2 mm.
To evaluate the effect of UDP on plaque burden, two-photon microscopy was used to assess the amyloid plaques in the barrel cortex in living PSAPP mice. Amyloid plaques were stained by systemically administered methoxy-X04. One day prior to imaging, PSAPP mice were injected with methoxyX04 to label the amyloid plaques. On the imaging day, to facilitate the re-location of the same imaging area, blood plasma was labeled with Rhodamine dextran. Images were obtained from the same start- and end-point to ensure the same image volume.
The results were shown in a maximum intensity projection of a fluorescent stack containing 45 planes. Immediately after imaging, animals were injected with ACSF or UDP intracerebroventricularly (i.c.v.) and allowed to recover. On day 4, animals were subjected to a second period of imaging of the same regions studied on day 1 and the results are shown in FIG. 1(D)-(F). The similar pattern of angiopathy (shown by open arrows) indicated the same imaging area.

[10] = system: PSAPP mice; experiment: Soluble Abeta level detected with ELISA; type: in vivo, mouse; details: UDP treatment
[11] = system: PSAPP mice; experiment: Hippocampal long-term potentiation (LTP) recording; type: in vivo, mouse
Protocol: Hippocampal slices ([…] thick) were prepared from 6-month-old PSAPP mice. Baseline responses were obtained every 10 seconds and Input-output (I/O) curves, paired-pulse modification and LTP were successively measured. The stimulation intensity was set to a level that gives a value of 30% of the maximum obtained. LTP were induced by high frequency stimulation (HFS, 100 pulses at 100 Hz, four times) or by theta-burst stimulation (TBS, 10 bursts at 5 Hz, repeated 10 times in 15 s intervals).
Accumulated evidence has shown that amyloid peptides naturally secreted or isolated from Alzheimer's brains impair synaptic plasticity, especially hippocampal long-term potentiation (Walsh et al., 2002). Therefore, we further performed LTP recordings in PASPP mice and investigated whether P2Y6 receptor-mediated plaque clearance affects synaptic plasticity. […] First, it was observed that LTP at the schaffer collateral synapse within the CA1 region was depressed in PSAPP mice, as compared with littermates (FIG. 8(A)).

[12] = acute i.c.v. UDP, barrel cortex, day 4 vs day 1, P<0.01

T3 sequence (Q15077 whole entry): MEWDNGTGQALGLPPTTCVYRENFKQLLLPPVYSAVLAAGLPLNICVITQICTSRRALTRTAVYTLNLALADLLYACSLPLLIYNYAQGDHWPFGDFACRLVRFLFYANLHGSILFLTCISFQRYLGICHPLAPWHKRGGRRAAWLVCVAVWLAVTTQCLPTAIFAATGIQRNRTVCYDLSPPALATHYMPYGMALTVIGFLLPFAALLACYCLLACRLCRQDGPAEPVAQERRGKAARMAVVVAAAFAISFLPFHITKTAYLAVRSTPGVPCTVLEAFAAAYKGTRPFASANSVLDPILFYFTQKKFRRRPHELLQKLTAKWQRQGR
T2 sequence (P51582 whole entry): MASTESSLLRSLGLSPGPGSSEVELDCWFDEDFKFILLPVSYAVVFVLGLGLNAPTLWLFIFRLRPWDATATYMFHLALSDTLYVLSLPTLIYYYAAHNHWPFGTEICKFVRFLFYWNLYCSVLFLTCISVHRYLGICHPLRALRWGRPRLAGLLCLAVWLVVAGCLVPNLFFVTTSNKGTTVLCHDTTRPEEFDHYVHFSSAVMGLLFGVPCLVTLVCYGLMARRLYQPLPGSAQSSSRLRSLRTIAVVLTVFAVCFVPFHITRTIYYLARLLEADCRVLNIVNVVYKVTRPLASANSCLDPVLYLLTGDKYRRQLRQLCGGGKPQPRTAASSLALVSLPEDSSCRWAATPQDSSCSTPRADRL
T1 sequence (P41231 whole entry): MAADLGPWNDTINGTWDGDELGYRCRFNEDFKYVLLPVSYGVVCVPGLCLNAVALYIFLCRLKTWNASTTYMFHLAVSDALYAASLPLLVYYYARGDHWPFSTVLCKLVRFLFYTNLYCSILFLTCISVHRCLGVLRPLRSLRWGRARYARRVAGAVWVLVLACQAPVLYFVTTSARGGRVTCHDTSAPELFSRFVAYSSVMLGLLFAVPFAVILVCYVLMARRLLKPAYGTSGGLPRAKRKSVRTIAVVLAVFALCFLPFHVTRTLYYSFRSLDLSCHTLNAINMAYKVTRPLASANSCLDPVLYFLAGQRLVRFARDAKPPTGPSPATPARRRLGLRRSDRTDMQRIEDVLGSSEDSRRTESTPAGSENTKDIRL

Question: With `O=c1ccn([C@@H]2O[C@H](COP(=O)(O)OP(=O)(O)O)[C@H](O)C2O)c(=O)n1Cc1noc2ccccc12` (stereo partly shown) [compound 5] as the molecule, how does the “elevating Ca2+ levels in P2Y2 receptor expressing cells” value [1] read?
Answer: Its value is “not effective”.

Question: What about the “elevating Ca2+ levels in P2Y4 receptor expressing cells” value [2] of the same molecule?
Answer: Its value is “not effective”.

Question: And the “freezing behavior compared to the control treatment” value ([3]; FIG. 11, compound 5 prior to the test)?
Answer: Its value is “significantly improved; also recorded: restored to a level equivalent to that observed in wildtype animals”.

Question: What about the “total freezing percentage in the context test” value ([3]; compound 5 i.p. daily for 7 consecutive days, 1 ug/kg or 1 mg/kg) of the same molecule?
Answer: The value was “increased”.

Question: What about the “Aβ plaque load (%) in the cortex vs vehicle control” value ([4]; FIG. 12A, β1-42 antibody, compound 5 i.p. 7 days) of the same molecule?
Answer: The value was “substantial decrease”.

Question: And the “Aβ plaque load (%) in the hippocampus vs vehicle control” value ([4]; FIG. 12B, β1-42 antibody, compound 5 i.p. 7 days)?
Answer: Its value is “substantial decrease”.

Question: And the “elevating Ca2+ levels in cells expressing P2Y6 receptors” value ([5]; sodium salt, 1321N1 human astrocytoma cells expressing P2Y6)?
Answer: The value was “only effective”.

Question: What about the EC50 ([5]; sodium salt, 1321N1 human astrocytoma cells expressing P2Y6, fluo-4 Ca2+) of the same molecule?
Answer: The EC50 was 12 nM.

Question: With `O=C(Cn1c(=O)ccn([C@@H]2O[C@H](COP(=O)(O)OP(=O)(O)O)[C@@H](O)[C@H]2O)c1=O)c1ccccc1` [PSB0474, 3-phenacyl-UDP] as the molecule, how does the “β1-40 staining after stopping treatment” value ([6]; 6 consecutive days i.p., then stopped for 2 weeks (6+2 weeks group), level lower than saline control) read?
Answer: Its value is “rebounded”.

Question: And the “immunoreactivity of β1-40 (plaque load)” value ([6]; cortex)?
Answer: Its value is “significantly decreased”.

Question: What about the “effects on the efficacy endpoint at higher dose” value ([6]; higher dose of 1 mg/kg, one week daily treatment) of the same molecule?
Answer: Its value is “smaller effects”.

Question: What about the “immunoreactivity of β1-40 (plaque load)” value ([6]; hippocampus) of the same molecule?
Answer: The value was “significantly decreased”.

Question: What about the “memory deficit compared to vehicle treatment” value ([3]; FIG. 9C, one week treatment with 1 ug/kg) of the same molecule?
Answer: Its value is “rescued the memory deficit”.

Question: What about the “total freezing percentage in context test” value ([3]; chronic injection of PSB0474, two different doses) of the same molecule?
Answer: Its value is “increased”.

Question: And the “detrimental effects to the animal” value [7]?
Answer: Its value is “did not cause detrimental effects”.

Question: And the EC50 ([8]; P2Y6 receptor agonist)?
Answer: Its EC50 is 70 nM.

Question: What about the “selectivity for P2Y6 receptor” value [8] of the same molecule?
Answer: The value was > 500 fold.

Question: Which “effect of antagonist on ability of sodium salt of compound 5 to elevate Ca2+ signals” value ([5]; P2Y6 expressing cells, MRS2578 added) does the source give for `S=C=Nc1cccc(NC(=S)NCCCCNC(=S)Nc2cccc(N=C=S)c2)c1` [MRS2578] here?
Answer: Its value is “attenuated”.

Question: What does the source list for `O=c1ccn([C@@H]2O[C@H](COP(=O)(O)OP(=O)(O)O)[C@@H](O)[C@H]2O)c(=O)[nH]1` [UDP, uridine diphosphate]?
Answer: day 4/day 1 ratios of plaque load ([9]; FIG. 2D, UDP vs ACSF, barrel cortex): significant reductions; day 4/day 1 ratios, number of plaques ([9]; FIG. 2E, UDP vs ACSF, barrel cortex): significant reductions; reduction in plaque load [9, 12]: 17.2%; reduction in the number of plaques [9, 12]: 12.6%; reduction in cross-sectional area of individual identified plaques ([9]; acute i.c.v. UDP, second imaging session, P<0.01): 18.2%; soluble Aβ40 level ([10]; FIG. 4E): decreased; soluble Aβ42 level ([10]; FIG. 4F): decreased; freezing behavior compared to ACSF treatment ([3]; FIG. 7C, UDP-treatment 3 days prior to the test): significantly improved; freezing behavior during 5 minute-testing time ([3]; UDP treatment, during the first 4 minutes, not the last minute): increased freezing behavior; total freezing percentage ([3]; acute UDP i.c.v., contextual test, ACSF control 18%±3%): 49%±5%; field excitatory postsynaptic potential (fEPSP), last 15 min potentiation ([11]; UDP treatment, comparable to level in littermates): significant increase; LTP at schaffer collateral synapse, CA1 ([11]; acute UDP treatment vs ACSF, HFS): reversed this LTP deficit; decrease in plaque load ([4]; cortex, β1-40 antibody, p<0.05): 60%; decrease in plaque load ([4]; cortex, β1-42 antibody, P<0.01): 48%; decrease in plaque load ([4]; hippocampus, β1-40 antibody, p<0.01): 62%; decrease in plaque load ([4]; hippocampus, β1-42 antibody, P<0.05): 47%
